Like-named read-outs stand apart in the source and are kept apart here.
Experiments:
[1] = test system: PC3 prostate cancer cell line; experiment: Anti-proliferative activity versus PC3 cells in MTS assay; type: cell-based
PC3 cells = details: cited from earlier work

Row | IC50 ([1]; Homo sapiens, PC-3, read-out: IC50, viability in prostate cancer cell line PC3) [µM] | IC50 ([1]; read-out: IC50, viability in prostate cancer cell line PC3, MTS assay, triplicate) [µM] | SMILES | effect on PC3 cells (PC3 cells)
1 | 2.8 ± 0.8 |  | COc1cccc2c1C(=O)c1c(O)c3c(c(O)c1C2=O)C[C@@](O)(C(=O)CO)C[C@@H]3O[C@H]1C[C@H](N)[C@H](O)[C@H](C)O1 [Doxorubicin] | 
2 |  | 52.1 ± 6.5 | CC1CCN(CC[C@H]2CCCN2S(=O)(=O)c2cccc(O)c2)CC1 [SB-269970] | inhibited proliferation and induced apoptosis in PC3 cells

Source: PMC13220710 (Bioorganic & medicinal chemistry letters, 2025)
